Source: PMC6956259, “Mechanistic Evaluation of Enhanced Curcumin Delivery through Human Skin In Vitro from Optimised Nanoemulsion Formulations Fabricated with Different Penetration Enhancers” (Pharmaceutics, 2019)
Where two headings read alike, the source gives them in different places.

Columns and labels:
[1] = cited from earlier work
[2] = Stability of curcumin in the receptor medium; format: physicochemical; conditions: 6% Volpo in water, 35 °C, at 0, 1, 6, 12 and 24 h
Procedure: Standard solutions of curcumin (5, 10, 12.5 and 25 µg/mL) were prepared in a 6% Volpo aqueous solution and stored at 35 ± 0.5 °C for 24 h. Samples removed at 1, 6, 12 and 24 h were assayed for drug content by HPLC.

| Amount of curcumin remaining [2] [%] | Structure (SMILES) | log P [1] | log P ([1]; no reference given) |
| --- | --- | --- | --- |
|  | CCCCOC(=O)c1ccc(O)cc1 [butyl paraben, reference compound] | 3.6 |  |
| > 99 | COc1cc(/C=C/C(=O)CC(=O)/C=C/c2ccc(O)c(OC)c2)ccc1O [curcumin, Curcumin] |  | 3.6 |
